Results taken from patent US11053204B2, “Pyrimidinyloxy benzene derivatives as herbicides” (FMC Corporation, priority 2015, dated 2021).

How the values were obtained:
Type in all cases: in vivo
[1] = tested on: ragweed (common ragweed, Ambrosia elatior); assay: Test A preemergence, visual injury rating
Outline: (§1)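 Pre- and postemergence greenhouse screen. Soil: loam + sand. Spray carrier: solvent mixture, non-phytotoxic, with surfactant. Post timing at 1–2 leaves, height 2–10 cm. Readout: visual injury on a 0–100 scale roughly 10 days after application, untreated plants as reference.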

[2] = tested on: kochia (Kochia scoparia); assay: Test A preemergence, visual injury rating
Outline: as §1

[3] = tested on: pigweed (Amaranthus retroflexus); assay: Test A preemergence, visual injury rating
Outline: as §1

[4] = tested on: Italian ryegrass (Lolium multiflorum); assay: Test A preemergence, visual injury rating
Outline: as §1

[5] = tested on: barnyardgrass (Echinochloa crus-galli); assay: Test A preemergence, visual injury rating
Outline: as §1

[6] = tested on: giant foxtail (Setaria faberii); assay: Test A preemergence, visual injury rating
Outline: as §1

[7] = tested on: blackgrass (Alopecurus myosuroides); assay: Test A postemergence, visual injury rating
Outline: as §1

[8] = tested on: ragweed (common ragweed, Ambrosia elatior); assay: Test A postemergence, visual injury rating
Outline: as §1

[9] = tested on: kochia (Kochia scoparia); assay: Test A postemergence, visual injury rating
Outline: as §1

[10] = tested on: corn (Zea mays); assay: Test A postemergence, visual injury rating
Outline: as §1

[11] = tested on: pigweed (Amaranthus retroflexus); assay: Test A postemergence, visual injury rating
Outline: as §1

[12] = tested on: Italian ryegrass (Lolium multiflorum); assay: Test A postemergence, visual injury rating
Outline: as §1

[13] = tested on: galium (catchweed bedstraw, Galium aparine); assay: Test A postemergence, visual injury rating
Outline: as §1

[14] = tested on: barnyardgrass (Echinochloa crus-galli); assay: Test A postemergence, visual injury rating; conditions: 0 is no effect, 100 is complete control; for Barnyardgrass plant response rating: 0 to 100 scale, approximately 10 days
Outline: as §1

[15] = tested on: giant foxtail (Setaria faberii); assay: Test A postemergence, visual injury rating
Outline: as §1

[16] = tested on: wheat (Triticum aestivum); assay: Test A postemergence, visual injury rating
Outline: as §1

[17] = tested on: sedge, umbrella (small-flower umbrella sedge, Cyperus difformis); assay: Test B flooded paddy test, plant response rating; conditions: 250 g ai/ha; Flood; scale of 0 to 100 where 0 is no effect and 100 is complete control; 13 to 15 days
Outline: (§2)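 In-water treatment: compound dosed into 3 cm flood over soil, water level unchanged throughout. Controls run alongside; visual assessment at day 13–15.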

[18] = tested on: ducksalad (Heteranthera limosa); assay: Test B flooded paddy test, plant response rating; conditions: 250 g ai/ha; Flood; scale of 0 to 100 where 0 is no effect and 100 is complete control; 13 to 15 days
Outline: as §2

[19] = tested on: rice (Oryza sativa); assay: Test B flooded paddy test, plant response rating; conditions: 250 g ai/ha; Flood; scale of 0 to 100 where 0 is no effect and 100 is complete control; 13 to 15 days
Outline: as §2

[20] = tested on: barnyardgrass (Echinochloa crus-galli); assay: Test B flooded paddy test, plant response rating; conditions: 250 g ai/ha; Flood; scale of 0 to 100 where 0 is no effect and 100 is complete control; 13 to 15 days
Outline: as §2

[21] = 31 g ai/ha, 0 to 100 scale, 0 no effect, 100 complete control
[22] = 125 g ai/ha, 0 to 100 scale (0 no effect, 100 complete control)
[23] = 31 g ai/ha, 0 to 100 scale (0 no effect, 100 complete control)
[24] = 125 g ai/ha, 0 to 100 scale, 0 is no effect, 100 is complete control, approximately 10 days
[25] = 31 g ai/ha, 0 to 100 scale, 0 is no effect, 100 is complete control, approximately 10 days
[26] = 125 g ai/ha, 0 is no effect, 100 is complete control

N#Cc1cccc(Oc2ncc(Cl)cn2)c1C(=O)CCCC(F)(F)F [Compound 133]
Plant response rating, Ragweed [1, 21]: 0
Plant response rating, Ragweed [1, 22]: 0
Plant response rating, Kochia [2, 21]: 0
Plant response rating, Kochia [2, 22]: 10
Plant response rating, Pigweed [3, 21]: 70
Plant response rating, Pigweed [3, 22]: 100
Plant response rating, Ryegrass, Italian [4, 21]: 0
Plant response rating, Ryegrass, Italian [4, 22]: 0
Plant response rating, Barnyardgrass [5, 21]: 0
Plant response rating, Barnyardgrass [5, 22]: 30
Plant response rating, Foxtail, Giant [6, 21]: 0
Plant response rating, Foxtail, Giant [6, 22]: 90
Blackgrass plant response rating [7, 23]: 0
Blackgrass plant response rating [7, 24]: 0
Ragweed plant response rating [8, 23]: 0
Ragweed plant response rating [8, 24]: 0
Kochia plant response rating [9, 23]: 0
Kochia plant response rating [9, 24]: 20
Corn plant response rating [10, 23]: 0
Corn plant response rating [10, 24]: 20
Pigweed plant response rating [11, 23]: 30
Pigweed plant response rating [11, 24]: 50
Ryegrass, Italian plant response rating [12, 23]: 0
Ryegrass, Italian plant response rating [12, 24]: 0
Galium plant response rating [13, 23]: 30
Galium plant response rating [13, 24]: 50
Barnyardgrass plant response rating ([14]; 31 g ai/ha): 10
Barnyardgrass plant response rating ([14]; 125 g ai/ha): 30
Foxtail, Giant plant response rating [15, 23]: 10
Foxtail, Giant plant response rating [15, 24]: 30
Wheat plant response rating [16, 23]: 0
Wheat plant response rating [16, 24]: 0
Plant response rating, Sedge, Umbrella [17]: 0
Plant response rating, Ducksalad [18]: 0
Plant response rating, Rice [19]: 30
Plant response rating, Barnyardgrass [20]: 0

CCCCCc1c(C#N)cccc1Oc1ncc(Cl)cn1 [Compound 87]
Plant response rating, Ragweed [1, 21]: 0
Ragweed plant response rating [1, 22]: 0
Plant response rating, Kochia [2, 21]: 30
Kochia plant response rating [2, 22]: 90
Plant response rating, Pigweed [3, 21]: 40
Pigweed plant response rating [3, 22]: 100
Plant response rating, Ryegrass, Italian [4, 21]: 0
Ryegrass, Italian plant response rating [4, 22]: 20
Plant response rating, Barnyardgrass [5, 21]: 70
Barnyardgrass plant response rating [5, 22]: 100
Plant response rating, Foxtail, Giant [6, 21]: 60
Foxtail, Giant plant response rating [6, 22]: 100
Blackgrass plant response rating [7, 25]: 10
Blackgrass plant response rating [7, 24]: 70
Ragweed plant response rating [8, 25]: 0
Ragweed plant response rating [8, 24]: 0
Kochia plant response rating [9, 25]: 100
Kochia plant response rating [9, 24]: 100
Corn plant response rating [10, 25]: 40
Corn plant response rating [10, 24]: 50
Pigweed plant response rating [11, 25]: 40
Pigweed plant response rating [11, 24]: 60
Ryegrass, Italian plant response rating [12, 25]: 0
Ryegrass, Italian plant response rating [12, 24]: 30
Galium plant response rating [13, 25]: 30
Galium plant response rating [13, 24]: 70
Barnyardgrass plant response rating ([14]; 31 g ai/ha): 40
Barnyardgrass plant response rating ([14]; 125 g ai/ha): 100
Foxtail, Giant plant response rating [15, 25]: 40
Foxtail, Giant plant response rating [15, 24]: 90
Wheat plant response rating [16, 25]: 20
Wheat plant response rating [16, 24]: 30
Plant response rating, Sedge, Umbrella [17]: 100
Plant response rating, Ducksalad [18]: 100
Plant response rating, Rice [19]: 35
Plant response rating, Barnyardgrass [20]: 50

N#Cc1cccc(Oc2ncc(Cl)cn2)c1COCCCC(F)(F)F [Compound 81]
Plant response rating, Ragweed [1, 21]: 0
Ragweed plant response rating [1, 22]: 0
Plant response rating, Kochia [2, 21]: 0
Kochia plant response rating [2, 22]: 90
Plant response rating, Pigweed [3, 21]: 100
Pigweed plant response rating [3, 22]: 100
Plant response rating, Ryegrass, Italian [4, 21]: 0
Ryegrass, Italian plant response rating [4, 22]: 20
Plant response rating, Barnyardgrass [5, 21]: 10
Barnyardgrass plant response rating [5, 22]: 90
Plant response rating, Foxtail, Giant [6, 21]: 30
Foxtail, Giant plant response rating [6, 22]: 100
Blackgrass plant response rating [7, 25]: 10
Blackgrass plant response rating (0 to 100 scale) [7, 26]: 40
Ragweed plant response rating [8, 25]: 0
Ragweed plant response rating [8, 24]: 10
Kochia plant response rating [9, 25]: 30
Kochia plant response rating [9, 24]: 50
Corn plant response rating [10, 25]: 10
Corn plant response rating (0 to 100 scale) [10, 26]: 40
Pigweed plant response rating [11, 25]: 50
Pigweed plant response rating [11, 24]: 100
Ryegrass, Italian plant response rating [12, 25]: 0
Ryegrass, Italian plant response rating [12, 24]: 10
Galium plant response rating [13, 25]: 30
Galium plant response rating (0 to 100 scale) [13, 26]: 80
Barnyardgrass plant response rating ([14]; 31 g ai/ha): 10
Barnyardgrass plant response rating (0 to 100 scale) ([14]; 125 g ai/ha): 50
Foxtail, Giant plant response rating [15, 25]: 20
Foxtail, Giant plant response rating (0 to 100 scale) [15, 26]: 70
Wheat plant response rating [16, 25]: 0
Wheat plant response rating [16, 24]: 0
Plant response rating, Sedge, Umbrella [17]: 100
Plant response rating, Ducksalad [18]: 100
Plant response rating, Rice [19]: 0
Plant response rating, Barnyardgrass [20]: 45

N#Cc1cccc(Oc2ncc(Cl)cn2)c1COCC(F)(F)C(F)(F)F [Compound 132]
Plant response rating, Ragweed [1, 21]: 0
Plant response rating, Ragweed [1, 22]: 0
Plant response rating, Kochia [2, 21]: 10
Plant response rating, Kochia [2, 22]: 60
Plant response rating, Pigweed [3, 21]: 70
Plant response rating, Pigweed [3, 22]: 100
Plant response rating, Ryegrass, Italian [4, 21]: 0
Plant response rating, Ryegrass, Italian [4, 22]: 30
Plant response rating, Barnyardgrass [5, 21]: 30
Plant response rating, Barnyardgrass [5, 22]: 100
Plant response rating, Foxtail, Giant [6, 21]: 40
Plant response rating, Foxtail, Giant [6, 22]: 100
Blackgrass plant response rating [7, 23]: 0
Blackgrass plant response rating [7, 24]: 30
Ragweed plant response rating [8, 23]: 0
Ragweed plant response rating [8, 24]: 0
Kochia plant response rating [9, 23]: 40
Kochia plant response rating [9, 24]: 70
Corn plant response rating [10, 23]: 20
Corn plant response rating [10, 24]: 30
Pigweed plant response rating [11, 23]: 60
Pigweed plant response rating [11, 24]: 90
Ryegrass, Italian plant response rating [12, 23]: 0
Ryegrass, Italian plant response rating [12, 24]: 0
Galium plant response rating [13, 23]: 20
Galium plant response rating [13, 24]: 60
Barnyardgrass plant response rating ([14]; 31 g ai/ha): 30
Barnyardgrass plant response rating ([14]; 125 g ai/ha): 50
Foxtail, Giant plant response rating [15, 23]: 30
Foxtail, Giant plant response rating [15, 24]: 50
Wheat plant response rating [16, 23]: 0
Wheat plant response rating [16, 24]: 20
Plant response rating, Sedge, Umbrella [17]: 80
Plant response rating, Ducksalad [18]: 90
Plant response rating, Rice [19]: 45
Plant response rating, Barnyardgrass [20]: 45

O=C(OCCC(F)(F)F)c1cc(Cl)ccc1Oc1ncc(Cl)cn1 [Compound 88]
Plant response rating, Ragweed [1, 21]: 0
Ragweed plant response rating [1, 22]: 0
Plant response rating, Kochia [2, 21]: 0
Kochia plant response rating [2, 22]: 0
Plant response rating, Pigweed [3, 21]: 0
Pigweed plant response rating [3, 22]: 0
Plant response rating, Ryegrass, Italian [4, 21]: 0
Ryegrass, Italian plant response rating [4, 22]: 0
Plant response rating, Barnyardgrass [5, 21]: 0
Barnyardgrass plant response rating [5, 22]: 0
Plant response rating, Foxtail, Giant [6, 21]: 0
Foxtail, Giant plant response rating [6, 22]: 0
Blackgrass plant response rating [7, 25]: 0
Blackgrass plant response rating [7, 24]: 0
Ragweed plant response rating [8, 25]: 0
Ragweed plant response rating [8, 24]: 0
Kochia plant response rating [9, 25]: 0
Kochia plant response rating [9, 24]: 0
Corn plant response rating [10, 25]: 0
Corn plant response rating [10, 24]: 0
Pigweed plant response rating [11, 25]: 0
Pigweed plant response rating [11, 24]: 0
Ryegrass, Italian plant response rating [12, 25]: 0
Ryegrass, Italian plant response rating [12, 24]: 0
Galium plant response rating [13, 25]: 0
Galium plant response rating [13, 24]: 0
Barnyardgrass plant response rating ([14]; 31 g ai/ha): 0
Barnyardgrass plant response rating ([14]; 125 g ai/ha): 0
Foxtail, Giant plant response rating [15, 25]: 0
Foxtail, Giant plant response rating [15, 24]: 0
Wheat plant response rating [16, 25]: 0
Wheat plant response rating [16, 24]: 0
Plant response rating, Sedge, Umbrella [17]: 0
Plant response rating, Ducksalad [18]: 0
Plant response rating, Rice [19]: 20
Plant response rating, Barnyardgrass [20]: 0
